From ChEMBL document CHEMBL1201862, “PubChem BioAssay data set” (2004)
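In this assay, cells in 96-well plates receive the compound at five concentrations for 48 hours. Endpoints are linearly interpolated between the surrounding concentrations. Abbreviation: GI50, concentration required for 50% inhibition of growth.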 Active and inactive are the calls of the source. No stated cut-off is given here; in the data, active = GI50 up to about 1.1 µM and inactive = higher.

What was measured:
Assay in all cases: NCI-60 cell line screen, 48 h
SF-295 = test system: SF-295
OVCAR-5 = test system: OVCAR-5
BT-549 = test system: BT-549
LOX IMVI = test system: LOX IMVI
MCF7 = test system: MCF7
SNB-19 = test system: SNB-19
SK-OV-3 = test system: SK-OV-3
UACC-62 = test system: UACC-62
MDA-MB-231 = test system: MDA-MB-231
M14 = test system: M14
EKVX = test system: EKVX
RXF 393 = test system: RXF 393
T47D = test system: T47D
CAKI-1 = test system: CAKI-1
U-251 = test system: U-251
K562 = test system: K562
OVCAR-4 = test system: OVCAR-4
NCI-H522 = test system: NCI-H522
UO-31 = test system: UO-31
HOP-62 = test system: HOP-62

Measured: GI50

COP(=O)(/C=C/C(NC(=O)C(Cl)(Cl)Cl)c1ccccc1)OC (stereo not given)
inactive: SF-295 > 100 µM | OVCAR-5 > 100 µM | BT-549 > 100 µM | LOX IMVI > 100 µM | MCF7 > 100 µM | SNB-19 > 100 µM | SK-OV-3 > 100 µM | UACC-62 > 100 µM | MDA-MB-231 > 100 µM | M14 > 100 µM | EKVX > 100 µM | RXF 393 > 100 µM | T47D > 100 µM | CAKI-1 > 100 µM | U-251 > 100 µM | K562 > 100 µM | OVCAR-4 > 100 µM | NCI-H522 > 100 µM | UO-31 > 100 µM | HOP-62 > 100 µM

Nc1nccc2c1ncn2C1C=C(CO)C(O)C1O (stereo not given)
inactive: SF-295 > 100 µM | OVCAR-5 23.4 µM | BT-549 83.2 µM | LOX IMVI 27.5 µM | MCF7 4.29 µM | SNB-19 62.7 µM | SK-OV-3 > 100 µM | UACC-62 11.5 µM | MDA-MB-231 > 100 µM | M14 70 µM | EKVX > 94.6 µM | RXF 393 87.9 µM | T47D > 100 µM | CAKI-1 21.1 µM | U-251 51.8 µM | K562 1.86 µM | OVCAR-4 59.4 µM | NCI-H522 > 100 µM | UO-31 3.39 µM | HOP-62 30.3 µM

Clc1ccc2oc(CCc3ccccc3)nc2c1
inactive: SF-295 33.6 µM | OVCAR-5 83.2 µM | BT-549 49.5 µM | LOX IMVI > 100 µM | MCF7 38 µM | SNB-19 91.6 µM | SK-OV-3 47.2 µM | UACC-62 > 100 µM | MDA-MB-231 > 100 µM | M14 59.8 µM | EKVX 32.5 µM | RXF 393 24.9 µM | T47D 20.5 µM | CAKI-1 38.2 µM | U-251 37.2 µM | K562 49.9 µM | OVCAR-4 52 µM | NCI-H522 35.6 µM | UO-31 62.7 µM | HOP-62 > 100 µM

O=C(O)CCNc1[nH]cnc2ncnc1-2
inactive: SF-295 > 100 µM | OVCAR-5 > 100 µM | BT-549 > 100 µM | LOX IMVI > 100 µM | MCF7 > 100 µM | SNB-19 > 100 µM | SK-OV-3 > 100 µM | UACC-62 > 100 µM | MDA-MB-231 > 100 µM | M14 > 100 µM | EKVX > 100 µM | RXF 393 > 100 µM | T47D > 100 µM | CAKI-1 > 100 µM | U-251 > 100 µM | K562 > 100 µM | OVCAR-4 > 100 µM | NCI-H522 > 100 µM | UO-31 > 100 µM | HOP-62 > 100 µM
